According to publication PMC7150870 (Toxins, 2020):
Where two headings read alike, the source gives them in different places. Marks after values point to notes of the source that are not given here.

Key:
[1] = test system: cells; conditions: cited from earlier work
[2] = test system: HEK 293T cells
[3] = test system: HepG2, Caco-2, RAW 264.7, and HEK 293T cells
[4] = test system: human colon adenocarcinoma HT29 cells; conditions: cited from earlier work
[5] = test system: Caco-2 cells
[6] = test system: HEK293T; format: cell-based, human
[7] = test system: HepG2; format: cell-based, human
[8] = test system: RAW 264.7; format: cell-based, mouse
[9] = test system: epithelial cell layers; conditions: cited from earlier work
[10] = test system: HEK293T cells; format: cell-based, human; conditions: read-out: IC50 halving the HEK293T cells viability
[11] = test system: HEK 293T cells; format: cell-based, human
[12] = test system: HEK293T; format: cell-based, human; remark: listed apart in the source
[13] = test system: Caco-2; format: cell-based, human
[14] = human (Caco-2), mouse (RAW 264.7)

COc1cc(O)c2c(=O)oc3cc(O)cc(C)c3c2c1 [AME, alternariol-9-methyl ether]
concentration with statistically significant decrease in viability of cells [1]: 25 µM
percentage of DNA in comet tail with respect to the negative control [2]: significantly increased
comet tails (percentage of DNA) ([2]; 25 µM, 24 h): ~42%
IC50 [3]: > 50 nM
concentrations significantly increasing the rate of DNA breaks [4]: ≥ 1000 nM
metabolites found by non-target U-HPLC-MS analysis [5]: 3-O-glucuronide, 7-O-glucuronide, and 3-O-sulfate
transepithelial transport, Apical Medium [5]: 35.92 ± 1.53^c %
transepithelial transport, Basolateral Medium [5]: 17.68 ± 0.86^bcd %
transepithelial transport, Caco-2 Cells [5]: 0.49 ± 0.02^ab %
transepithelial transport, Raw 264.7 Cells [5]: 0.01 ± 0.00^ab %
transepithelial transport, Total [5]: 53.94 ± 1.59^bc %
combination index, mixture of DAS (6.58 nM) [6]: 0.90 ± 0.05 Add
combination index, mixture of HT-2 (21.22 nM) [6]: 0.92 ± 0.06 Add
combination index, mixture of T-2 (3.87 nM) [6]: 0.97 ± 0.07 Add
type of interaction, mixture of DAS (6.58 nM) [6]: 0.90 ± 0.05 Add (key: Syn: Combination index (CI) < 0.9; Add: 0.9 ≤ CI ≤ 1; Ant: CI > 1)
type of interaction, mixture of HT-2 (21.22 nM) [6]: 0.92 ± 0.06 Add (key: Syn: Combination index (CI) < 0.9; Add: 0.9 ≤ CI ≤ 1; Ant: CI > 1)
type of interaction, mixture of T-2 (3.87 nM) [6]: 0.97 ± 0.07 Add (key: Syn: Combination index (CI) < 0.9; Add: 0.9 ≤ CI ≤ 1; Ant: CI > 1)

CC(=O)OC[C@]12C[C@H](OC(=O)CC(C)C)C(C)=C[C@H]1O[C@@H]1[C@H](O)[C@@H](O)[C@@]2(C)[C@]12CO2 [HT-2, HT-2 toxin]
IC50 [7]: 47.4 ± 1.29 nM
IC50 [8]: 5.07 ± 0.46 nM
IC50 ([3]; read-out: IC50 range in studied cells): 5.07 to 47.4 nM
transport through the epithelial cell layers [9]: ≤ 32%
IC50 [10]: 30 nM
combination index, silibinin 1.7 µM [11]: 1.10 ± 0.02 Add
combination index, silibinin 3.4 µM [11]: 1.27 ± 0.11 Ant
combination index, silibinin 6.8 µM [11]: 1.57 ± 0.15 Ant
combination index, silibinin 13.6 µM [11]: 1.25 ± 0.08 Ant
combination index, silibinin 27.3 µM [11]: 1.06 ± 0.07 Add
combination index, silibinin 54.5 µM [11]: 1.03 ± 0.04 Add
combination index, silibinin 109.00 µM [11]: 1.08 ± 0.03 Add
type of interaction, silibinin 1.7 µM [11]: 1.10 ± 0.02 Add (key: Syn: Combination index (CI) < 0.9; Add: 0.9 ≤ CI ≤ 1; Ant: CI > 1)
type of interaction, silibinin 3.4 µM [11]: 1.27 ± 0.11 Ant (key: Syn: Combination index (CI) < 0.9; Add: 0.9 ≤ CI ≤ 1; Ant: CI > 1)
type of interaction, silibinin 6.8 µM [11]: 1.57 ± 0.15 Ant (key: Syn: Combination index (CI) < 0.9; Add: 0.9 ≤ CI ≤ 1; Ant: CI > 1)
type of interaction, silibinin 13.6 µM [11]: 1.25 ± 0.08 Ant (key: Syn: Combination index (CI) < 0.9; Add: 0.9 ≤ CI ≤ 1; Ant: CI > 1)
type of interaction, silibinin 27.3 µM [11]: 1.06 ± 0.07 Add (key: Syn: Combination index (CI) < 0.9; Add: 0.9 ≤ CI ≤ 1; Ant: CI > 1)
type of interaction, silibinin 54.5 µM [11]: 1.03 ± 0.04 Add (key: Syn: Combination index (CI) < 0.9; Add: 0.9 ≤ CI ≤ 1; Ant: CI > 1)
type of interaction, silibinin 109.00 µM [11]: 1.08 ± 0.03 Add (key: Syn: Combination index (CI) < 0.9; Add: 0.9 ≤ CI ≤ 1; Ant: CI > 1)
IC50 [12]: 21.2 ± 1.6 nM
transepithelial transport, Apical Medium [5, 14]: 72.63±2.25^f %
transepithelial transport, Basolateral Medium [5, 14]: 49.18 ± 1.80^g %
transepithelial transport, Caco-2 Cells [5, 14]: 0.01 ± 0.00^a %
transepithelial transport, Raw 264.7 Cells [5, 14]: 0.01 ± 0.00^a %
transepithelial transport, Total [5, 14]: 121.83 ± 1.33^f %
IC50 [13]: 44.2 ± 2.26 nM
combination index, mixture of DAS (6.58 nM) [6]: 0.54 ± 0.03 Syn
combination index, mixture of T-2 (3.87 nM) [6]: 0.67 ± 0.04 Syn
type of interaction, mixture of DAS (6.58 nM) [6]: 0.54 ± 0.03 Syn (key: Syn: Combination index (CI) < 0.9; Add: 0.9 ≤ CI ≤ 1; Ant: CI > 1)
type of interaction, mixture of T-2 (3.87 nM) [6]: 0.67 ± 0.04 Syn (key: Syn: Combination index (CI) < 0.9; Add: 0.9 ≤ CI ≤ 1; Ant: CI > 1)

CC(C)C[C@@H]1NC(=O)[C@H](C)N(C)C(=O)CNC(=O)/C(=C/c2ccccc2)N(C)C1=O [TEN, tentoxin]
percentage of DNA in comet tail with respect to the negative control [2]: no significant DNA damage
IC50 [3]: > 50 nM
metabolites found by non-target U-HPLC-MS analysis [5]: metabolite M1, metabolite M2, and metabolite M3
transepithelial transport, Apical Medium [5]: 28.07 ± 0.62^abc %
transepithelial transport, Basolateral Medium [5]: 7.25 ± 0.72^ab %
transepithelial transport, Caco-2 Cells [5]: 0.00 ± 0.00^a %
transepithelial transport, Raw 264.7 Cells [5]: 0.00 ± 0.00^a %
transepithelial transport, Total [5]: 35.33 ± 0.10^ab %
combination index, mixture of DAS (6.58 nM) [6]: 0.92 ± 0.17 Add
combination index, mixture of HT-2 (21.22 nM) [6]: 0.94 ± 0.04 Add
combination index, mixture of T-2 (3.87 nM) [6]: 0.92 ± 0.07 Add
type of interaction, mixture of DAS (6.58 nM) [6]: 0.92 ± 0.17 Add (key: Syn: Combination index (CI) < 0.9; Add: 0.9 ≤ CI ≤ 1; Ant: CI > 1)
type of interaction, mixture of HT-2 (21.22 nM) [6]: 0.94 ± 0.04 Add (key: Syn: Combination index (CI) < 0.9; Add: 0.9 ≤ CI ≤ 1; Ant: CI > 1)
type of interaction, mixture of T-2 (3.87 nM) [6]: 0.92 ± 0.07 Add (key: Syn: Combination index (CI) < 0.9; Add: 0.9 ≤ CI ≤ 1; Ant: CI > 1)
